The text below walks through data of paper PMC12549899 (Nature Communications, 2025).

For the experiment, the target named is T1, DrOTOP1 M573W (Danio rerio, UniProt Q7ZWK8, M573W).
T1 construct: A previously generated codon-optimized full-length DrOTOP1[8]; (UniProt: Q7ZWK8) construct; expressed in transfected cells; host or cells: HEK-293 (CRL-1573, ATCC)
T1 sequence (Q7ZWK8 1-586 M573W): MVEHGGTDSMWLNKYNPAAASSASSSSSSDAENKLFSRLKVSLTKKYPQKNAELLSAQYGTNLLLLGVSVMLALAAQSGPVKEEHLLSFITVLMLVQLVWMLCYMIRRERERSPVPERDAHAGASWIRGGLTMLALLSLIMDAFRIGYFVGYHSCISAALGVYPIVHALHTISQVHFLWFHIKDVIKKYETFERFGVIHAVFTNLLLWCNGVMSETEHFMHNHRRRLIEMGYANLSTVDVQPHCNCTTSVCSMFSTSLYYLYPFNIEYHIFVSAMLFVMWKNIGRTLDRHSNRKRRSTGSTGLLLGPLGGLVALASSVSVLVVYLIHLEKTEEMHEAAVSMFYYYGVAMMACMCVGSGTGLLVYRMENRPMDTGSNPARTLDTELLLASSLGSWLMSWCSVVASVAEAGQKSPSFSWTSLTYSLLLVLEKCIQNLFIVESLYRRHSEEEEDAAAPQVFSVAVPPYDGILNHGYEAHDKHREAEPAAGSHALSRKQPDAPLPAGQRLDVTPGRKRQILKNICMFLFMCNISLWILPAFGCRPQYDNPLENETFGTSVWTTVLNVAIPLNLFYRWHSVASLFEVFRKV
Briefly: Whole-cell patch-clamp, inhibition of acid-evoked currents, DrOTOP1 M573W (outer site). In kind it is cell-based, zebrafish (Danio rerio). An excerpt: To functionally test the significance of the two binding sites identified by cryo-EM, we generated point mutations of DrOTOP1 using the binding poses and conformational changes observed in DrOTOP1_C2.2 to guide our mutations. As per the binding pose that best fits our cryo-EM density, C2.2 forms the following interactions in the outer site: hydrophobic packing against many non-polar residues W126, G130, M133, L134, F271, F570, and M573, and π-stacking with W532 (Fig. 5A). In addition, C2.2 could potentially form H-bonds with E267, if the sidechain is protonated or a water bridge is present, and with H574 if it moves closer (Fig. 5A). Likewise, C2.36 presents a heterocyclic nitrogen that can potentially form a H-bond with E267, similarly, provided a protonation or water bridge is present (Fig. 5B). In addition, C2.36 forms a T-shaped π-stacking interaction with H574, whose sidechain has rotated 90 degrees (compared to DrOTOP1_apo), presumably to accommodate the interaction (Fig. 5B). Considering other inhibitors discovered from the second round of screening, many contain functional groups like the carbonyl groups of Group 1 molecules and the heterocyclic nitrogen atoms of Group 2 molecules (Supplementary Fig. 3E), that can potentially form similar H-bonds with E267 as C2.2 and C2.36, assuming the binding modes are similar. In the central site, C2.2 binds with the following interactions: hydrophobic packing with residues V201, F271, A274, V278, and A388, π-stacking with F277, and H-bonding with E384 (Fig. 5C).
Each non-aromatic residue was mutated to tryptophan, which was expected to cause steric occlusion. […] This seemed appropriate given the small number of H-bonds in these pockets, the ambiguity of how the inhibitors fit the density, and the prevalence of hydrophobic packing interactions (Fig. 5A–C).
HEK-293 cells (CRL-1573, ATCC) were cultured in DMEM (Thermofisher 11995073) containing 10% fetal bovine serum (Life Technology 16000044) and Penicillin-Streptomycin (100 I.U./mL) and (100 µg/mL), respectively. Cells were transfected with WT DrOTOP1 or mutant DrOTOP1 channels in 35 mm petri dishes, with ~ 500 ng DNA and 2 μL TransIT-LT1 transfection reagent (Mirus Bio Corporation, Cat # MIR2300) following the manufacturer’s protocol. All constructs were subcloned into a pcDNA3.1 vector that adds an N-terminal fusion tag consisting of an octahistidine tag followed by eGFP, a Gly-Thr-Gly-Thr linker and a 3C protease cleavage site ([…]) followed by WT DrOTOP1, WT mOTOP1, WT hOTOP1, or mutated DrOTOP1. Point mutations were generated via In-Fusion Cloning (Takara) using single-stranded DNA primers generated through IDT and sequence confirmed by Sanger sequencing (GeneWiz).
Whole-cell patch-clamp recording was performed as previously described[6],[22],[25]. Recordings were made with an Axopatch 200B amplifier, digitized with a Digidata 1322a 16-bit data acquisition system, acquired with pClamp 8.2 and analyzed with Clampfit 10 (Molecular Devices). Recordings were sampled at 5 kHz and filtered at 1 kHz. Patch Pipettes with resistance of […] were fabricated from borosilicate glass, and only recordings with a giga-Ohm seal were used in analysis. Membrane potential was held at −80 mV for the duration of recordings. At the beginning of recordings and between, cells were washed with Tyrode’s solution (see below). Once a giga-Ohm seal was reached, cells were lifted and placed in front of microcapillary tubes controlled by a Fast-Step perfusion system (Warner Instruments) so that extracellular solutions could be rapidly exchanged during each experiment.
Standard Tyrode’s solution consisted of 145 mM NaCl, 5 mM KCl, MgCl2, 2 mM CaCl2, 20 mM D-Glucose, and 10 mM HEPES (for pH 7.4). All other extracellular patch-clamp solutions contained 160 mM NMDG-Cl, 2 mM CaCl2, and the following buffers: 10 mM HEPES (for pH 7.4), 10 mM MES (for pH 6.5-5.5), 10 mM CHES for pH 10, and 10 mM HomoPIPES for (pH 5.0). pH adjusted with HCl. […]

The structures appear in SMILES notation. Values joined by “and” are separate entries in the source; they are usually repeats but may differ in a detail not shown here. Equal entries are not always repeated.

`C=C(C)COc1ccccc1NC(=O)c1nc[nH]c1C` [C2.2]: the Hill coefficient (commonly a measure of the steepness of the concentration-response curve) came to 1.238. Also, the inhibition – broadly, the drop in the measured response relative to a control, in per cent – at 3 µM (3 µM, single cells) is 4.02%. This molecule also displayed an inhibition at 30 µM (30 µM, single cells) of 46.6%. Moreover, the inhibition at 100 µM (100 µM, single cells) stood at 84.3%. At 300 µM the inhibition (300 µM, single cells) was 91.4%. Besides, the IC50 (usually the concentration at which inhibition is half-maximal) (pH 5.5) turned out to be 30.4 µM.
Turning to `O=C(/C(=N\O)c1ccccc1)c1ccccc1` [C11, benzil monoxime], for the setting “100 µM, single cells”, the Inhibition of currents was 53.3175% and 66.3617% and 67.3077% and 51.54%; testing at 100 µM gave an inhibition of 51.6%.
